For 9 compounds, IC50 results are on record in patent US9650339B2, “Inhibitors of histone demethylases” (Gilead Sciences, Inc., priority 2013, dated 2017).

One experiment concerns the target T1, KDM5B (PLU-1) (Homo sapiens, UniProt Q9UGL1).
T1 sequence (Q9UGL1 1-809): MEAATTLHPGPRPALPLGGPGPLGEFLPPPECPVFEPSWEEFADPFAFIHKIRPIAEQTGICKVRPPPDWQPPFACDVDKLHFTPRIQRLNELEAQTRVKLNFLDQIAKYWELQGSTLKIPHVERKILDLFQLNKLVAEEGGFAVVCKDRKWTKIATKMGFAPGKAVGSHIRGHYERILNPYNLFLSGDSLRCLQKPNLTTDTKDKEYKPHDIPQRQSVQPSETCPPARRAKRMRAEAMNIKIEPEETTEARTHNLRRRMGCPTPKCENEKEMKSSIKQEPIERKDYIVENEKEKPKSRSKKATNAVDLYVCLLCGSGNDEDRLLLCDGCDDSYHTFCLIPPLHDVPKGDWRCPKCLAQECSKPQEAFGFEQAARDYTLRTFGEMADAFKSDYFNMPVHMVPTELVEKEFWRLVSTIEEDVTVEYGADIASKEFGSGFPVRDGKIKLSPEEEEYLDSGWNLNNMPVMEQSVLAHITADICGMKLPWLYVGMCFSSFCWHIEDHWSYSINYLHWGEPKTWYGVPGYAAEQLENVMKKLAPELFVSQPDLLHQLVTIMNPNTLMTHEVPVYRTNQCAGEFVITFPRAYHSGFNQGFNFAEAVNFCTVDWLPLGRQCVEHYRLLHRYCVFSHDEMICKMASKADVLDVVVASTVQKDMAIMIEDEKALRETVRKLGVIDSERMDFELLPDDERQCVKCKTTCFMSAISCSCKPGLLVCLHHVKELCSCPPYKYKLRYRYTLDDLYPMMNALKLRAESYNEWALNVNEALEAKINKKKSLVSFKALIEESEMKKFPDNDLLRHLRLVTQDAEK
Description: Histone lysine demethylase AlphaLISA assay, KDM5B. The class given is biochemical. Particulars: read-out: KDM5B HDME Inhibition IC50. In outline:
(§1)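 Each enzyme was pre-incubated 10 min in buffer, then 10 min with compound in 3% DMSO solution. The reaction started with biotinylated histone H3 peptide substrate plus 25 μM L-ascorbate and 10 μM α-KG at room temperature. Detection used AlphaLISA acceptor beads, then streptavidin donor beads, in the dark.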
A general note: Alpha assays give light when donor and acceptor beads are brought close together.

The next experiment addresses T2, KDM3A (JMJD1A) (Homo sapiens, UniProt Q9Y4C1).
T2 construct: 2-end; purchased BPS Bioscience, US; host or cells: Bac (baculovirus system)
T2 sequence (Q9Y4C1 2-1321 limits assumed): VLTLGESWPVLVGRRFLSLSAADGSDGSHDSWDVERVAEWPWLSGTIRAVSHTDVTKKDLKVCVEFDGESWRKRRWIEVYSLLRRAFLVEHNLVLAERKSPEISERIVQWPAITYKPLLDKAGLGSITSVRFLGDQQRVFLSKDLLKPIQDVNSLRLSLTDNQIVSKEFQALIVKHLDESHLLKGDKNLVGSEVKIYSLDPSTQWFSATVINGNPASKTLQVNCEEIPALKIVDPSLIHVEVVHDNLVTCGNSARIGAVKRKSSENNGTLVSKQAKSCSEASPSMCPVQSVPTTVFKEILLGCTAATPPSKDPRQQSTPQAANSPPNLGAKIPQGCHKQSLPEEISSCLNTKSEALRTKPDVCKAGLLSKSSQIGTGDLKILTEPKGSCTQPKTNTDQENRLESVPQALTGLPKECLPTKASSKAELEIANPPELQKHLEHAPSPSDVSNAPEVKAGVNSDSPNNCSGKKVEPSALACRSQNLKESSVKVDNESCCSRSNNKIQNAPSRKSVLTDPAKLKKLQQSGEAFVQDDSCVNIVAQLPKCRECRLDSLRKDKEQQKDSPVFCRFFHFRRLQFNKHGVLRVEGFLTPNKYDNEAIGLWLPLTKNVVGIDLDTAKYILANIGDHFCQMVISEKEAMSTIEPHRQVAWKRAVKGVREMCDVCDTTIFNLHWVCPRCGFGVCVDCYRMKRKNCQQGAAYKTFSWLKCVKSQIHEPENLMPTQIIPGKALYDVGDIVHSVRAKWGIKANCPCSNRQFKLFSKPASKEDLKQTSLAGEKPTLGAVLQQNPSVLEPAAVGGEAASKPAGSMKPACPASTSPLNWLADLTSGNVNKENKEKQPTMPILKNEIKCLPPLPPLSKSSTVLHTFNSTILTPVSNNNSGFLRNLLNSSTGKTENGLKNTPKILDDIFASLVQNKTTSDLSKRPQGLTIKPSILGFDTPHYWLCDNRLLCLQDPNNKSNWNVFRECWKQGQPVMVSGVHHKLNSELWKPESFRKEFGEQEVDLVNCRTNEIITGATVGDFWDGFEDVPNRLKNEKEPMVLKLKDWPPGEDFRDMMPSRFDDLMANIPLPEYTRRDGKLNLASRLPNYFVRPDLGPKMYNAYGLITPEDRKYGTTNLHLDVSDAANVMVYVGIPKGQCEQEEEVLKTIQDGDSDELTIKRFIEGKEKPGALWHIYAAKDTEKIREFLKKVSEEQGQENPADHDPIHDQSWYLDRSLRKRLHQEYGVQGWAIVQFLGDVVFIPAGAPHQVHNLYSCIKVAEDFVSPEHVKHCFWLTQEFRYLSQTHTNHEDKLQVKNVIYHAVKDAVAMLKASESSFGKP
Description: Histone lysine demethylase AlphaLISA assay, KDM3A. It counts as biochemical. Particulars: read-out: KDM3 A HDME Inhibition IC50. A digest of the protocol: as §1

As usually defined, the IC50 is the midpoint of a concentration-inhibition curve.

For `CN(C)CCNCc1ccnc(CNCCCN(C)Cc2ccccc2)c1` [Compound 18, benzyl[3-({[4-({[2-(dimethylamino)ethyl]-amino}methyl)pyridin-2-yl]methyl}-amino)propyl]-methylamine], the IC50 was 250 to 2500 nM at KDM5B (PLU-1) and over 2500 nM at KDM3A (JMJD1A).
The corresponding values for `O=Cc1ccnc(CNCC(=O)NC2CCN(Cc3ccccc3)C2)c1` (stereo not shown) [Compound 113, N-(1-benzylpyrrolidin-3-yl)-2-{[(4-formylpyridin-2-yl)methyl]amino}-acetamide] are under 250 nM and over 2500 nM.
Turning to `COC(=O)CNCc1cc(/C=N/C2CC2)ccn1` [Compound 59, methyl 2-[({4-[N-cyclopropyl-carboximidoyl]pyridin-2-yl}methyl)amino]-acetate], the IC50 was under 250 nM at KDM5B (PLU-1) and over 2500 nM on KDM3A (JMJD1A).
On to `CCN(CC)CCCCNCc1cc(C2NCCCN2C)ccn1` (stereo not shown) [Compound 68, [4-(diethylamino)butyl]({[4-(1-methyl-1,3-diazinan-2-yl)pyridin-2-yl]methyl})amine], for which the IC50 on KDM5B (PLU-1) was under 250 nM.
Same read-out and setting: then `CCN(CCN(C)C)C(=O)CN(Cc1cc(CNC(=O)C(F)(F)F)ccn1)C(=O)C(F)(F)F` [Compound 26, N-[(2-{[N-({[2-(dimethylamino)ethyl]-(ethyl)carbamoyl}-methyl)-2,2,2-trifluoroacetamido]-methyl}pyridin-4-yl)methyl]-2,2,2-trifIuoroacetamide], with over 2500 nM.
With `COCCNCc1ccnc(CNCCCN(C)Cc2ccccc2)c1` [Compound 19, benzyl(3-{[(4-{[(2-methoxyethyl)amino]-methyl}pyridin-2-yl)methyl]amino}-propyl)methylamine], the IC50 was 250 to 2500 nM on KDM5B (PLU-1) and over 2500 nM at KDM3A (JMJD1A).
For `O=Cc1ccnc(CNCCCCN(Cc2ccccc2)C2CC2)c1` [Compound 109, 2-[({4-[benzyl-(cyclopropyl)amino]-butyl}amino)methyl]-pyridine-4-carbaldehyde], the results for the IC50 on KDM5B (PLU-1) and at KDM3A (JMJD1A) were under 250 nM and over 2500 nM, respectively.
For the compound `CN(C)CCCCNCc1cc(CN)ccn1` [Compound 2, [2-({[4-(dimethylamino)butyl]-amino}methyl)pyridin-4-yl]methanamine], the IC50 at KDM5B (PLU-1) and on KDM3A (JMJD1A) was over 2500 nM throughout.
With `COc1ccccc1CN1CCC(NC(=O)CNCc2cc(CNC3CC3)ccn2)CC1` [Compound 20, 2-[({4-[(cyclopropylamino)-methyl]pyridin-2-yl}methyl)amino]-N-{1-[(2-methoxyphenyl)methyl]-piperidin-4-yl}acetamide], the IC50 at KDM5B (PLU-1) was under 250 nM; on KDM3A (JMJD1A), over 2500 nM.
